Literature values in patent US12201639B2, “Aqueous oral pharmaceutical suspension compositions” (ReveraGen BioPharma, Inc., priority 2019, dated 2025).

What was measured:
[1] = test system: mouse models of inflammatory states; conditions: compared with prednisolone
glucocorticoid receptor = target: T1, glucocorticoid receptor (Homo sapiens, UniProt P04150); conditions: pre-clinical data
T1 sequence (P04150 1-777): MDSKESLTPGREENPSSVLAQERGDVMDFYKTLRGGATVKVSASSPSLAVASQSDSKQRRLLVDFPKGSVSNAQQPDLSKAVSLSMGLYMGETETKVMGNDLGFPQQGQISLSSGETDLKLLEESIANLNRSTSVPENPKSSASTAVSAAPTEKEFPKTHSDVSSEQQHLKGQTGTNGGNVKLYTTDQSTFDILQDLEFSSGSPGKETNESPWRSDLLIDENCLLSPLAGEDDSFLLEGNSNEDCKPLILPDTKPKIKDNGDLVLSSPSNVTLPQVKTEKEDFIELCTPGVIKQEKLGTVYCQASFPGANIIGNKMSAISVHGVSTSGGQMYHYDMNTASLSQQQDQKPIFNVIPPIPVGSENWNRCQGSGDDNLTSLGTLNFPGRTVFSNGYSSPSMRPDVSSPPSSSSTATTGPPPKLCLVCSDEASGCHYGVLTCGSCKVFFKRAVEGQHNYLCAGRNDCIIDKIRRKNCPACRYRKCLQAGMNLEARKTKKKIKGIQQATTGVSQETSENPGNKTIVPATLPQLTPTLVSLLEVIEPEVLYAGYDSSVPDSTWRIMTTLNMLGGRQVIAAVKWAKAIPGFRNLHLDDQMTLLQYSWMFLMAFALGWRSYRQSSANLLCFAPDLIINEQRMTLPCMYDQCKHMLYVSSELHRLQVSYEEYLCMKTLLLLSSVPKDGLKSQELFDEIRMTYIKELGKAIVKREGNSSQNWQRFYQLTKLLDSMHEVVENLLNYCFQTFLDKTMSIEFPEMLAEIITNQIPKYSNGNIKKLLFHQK

binding to the glucocorticoid receptor (glucocorticoid receptor): binds potently
Structure (SMILES): C[C@@H]1C[C@H]2[C@@H]3CCC4=CC(=O)C=C[C@]4(C)C3=CC[C@]2(C)[C@@]1(O)C(=O)CO [vamorolone, 17α,21-dihydroxy-16α-methylpregna-1,4,9 (11)-triene-3,20-dione]
side effect profiles (growth stunting, bone fragility) in mouse models [1]: dramatically improves side effect profiles
